Patent US8987486B2, “Trans-2-decenoic acid derivative and pharmaceutical agent containing the same” (Nagoya Industrial Science Research Institute, priority 2010, dated 2015)

Key:
MAP kinase = experiment: Activation (phosphorylation) of MAP kinase by Western immunoblotting in cultured cerebral cortex nerve cells; type: cell-based, rat; conditions: for Ratio of pMAPK to MAPK: Test Example 6, relative to control (0 μg/mL = 1.0)
Procedure: With regard to the compound 1 ((E)-2-(dimethylamino)-ethyl dec-2-enoate), activation of MAP kinase was measured as follows by a Western immunoblotting.
Nerve cells were dispersed from cerebral cortex of a fetal rat of 17 days age and said nerve cells were cultured for one day in a Dulbecco-modified Eagle medium (DMEM) containing 5% fetal bovine serum. The culture medium was exchanged with a serum-free medium (B27 supplement-added Neurobasal; Invitrogen) and the nerve cells were cultured at the density of 20,000 to 40,000 cells per cm^2 in a culture dish coated with polyornithine.
After three days, the compound 1 was added and the culture was continued for 30 minutes. After that, the cells were recovered on ice using a solution containing a phosphatase inhibitor where Tris-HCl buffer was a base. Protein concentration of the resulting cell extract was quantified using a BCA Protein Assay Kit (Takara Bio KK) and a certine amount of protein (3 μg for the measurement of MAP kinase and 5 μg for the measurement of phosphorylated MAP kinase) was subjected to polyacrylamide gel electrophoresis. The protein was transcribed from the gel after the electrophoresis to a PVDF membrane and a Western immunoblotting was carried out using each of an anti-MAP kinase antibody (Cell Signaling Technology) and an anti-phosphorylated MAP kinase antibody (Cell Signaling Technology) of the primary antibody.
After that, the reaction with an alkaline phosphatase-labeled anti-rabbit IgG antibody (Promega) of the secondary antibody was carried out so that the enzymatic activity was colorized whereupon the MAP kinase and the phosphorylated MAP kinase were measured.
Incidentally, the compound 1 was adjusted to the concentrations of 10 μg/ml, 30 μg/ml, 100 μg/ml and 300 μg/ml by dissolving in 0.1% DMSO. With regard to the control, 0.1% DMSO was added.
Intensity of the concentration of the above-obtained band of the gel subjected to electrophoresis was calculated and quantified using Image J (K. K. Bioarts). The numerical value for the MAP kinase using the compound 1 was divided by the numerical value for the MAP kinase of the control and, further, the numerical value for the phosphorylated MAP kinase using the compound 1 was divided by the numerical value for the phosphorylated MAP kinase of the control whereupon the ratio of the MAP kinase using the compound 1 to the control and the ratio of the phosphorylated kinase using the compound 1 to the control were determined.
After that, the resulting ratio of the phosphorylated MAP kinase to the control was divided by the resulting ratio of the MAP kinase to the control to determine the ratio of the phosphorylated MAP kinase to the MAP kinase (cf. Table 5). In Table 5, “MAPK” means a MAP kinase and “pMAPK” means a phosphorylated MAP kinase. “10”, “30”, “100” and “300” in Table 5 show the examples where 10 μg/ml, 30 μg/ml, 100 μg/ml and 300 μg/ml of the compound 1 were added.
MAP kinase and phosphorylated MAP kinase were measured for the compound 6 ((E)-2-(diethylamino)ethyl dec-2-enoate) and the compound 13 ((E)-2-(2-(diethylamino)ethoxy)ethyl dec-2-enoate) by the same method as in Test Example 1.
Each of the compounds 6 and 13 was dissolved in 0.1% DMSO to adjust to the concentration of 250 μg/ml. With regard to the control, 0.1% DMSO was added. With regard to the concentration of the resulting band of the gel subjected to electrophoresis, its intensity was calculated by the same method as in Test Example 1 using Image J (K. K. Bioarts) and the ratio of the phosphorylated MAP kinase to the control was divided by the resulting ratio of the MAP kinase to the control whereupon the ratio of the phosphorylated MAP kinase to the MAP kinase was determined (cf. Table 6).
With regard to the compound of the present invention, its activation for MAP kinase was measured by the same manner as in Test Example 1.
Each compound was dissolved in 0.1% DMSO to adjust to the concentrations of 30 μg/ml, 60 μg/ml, 125 μg/ml and 250 μg/ml. […]

PC12 cells = experiment: Evaluation using PC12 cells; immunostaining method for MAPK phosphorylation; type: cell-based; conditions: 30 minutes
Procedure: PC12 cells were stimulated using the compound of the present invention and the phosphorylation of MAPK was evaluated by means of immunostaining of the cells. The specific operation procedure is as follows.
A cover glass was placed on a 24-well plate followed by coating with poly-L-lysine. PC12 cells were seeded in a cell density of 50,000 cells/well. (The amount of the medium was 400 μL) On the first day after seeding the cells, the medium was exchanged to DMEM containing 1% fetal bovine serum (FBS) and 0.06% L-glutamine.
The compound which was previously diluted with DMSO was dissolved in 100 μl of medium. After 12 to 16 hours from the medium exchange, 100 μl out of 400 μl of the medium was removed from each well and, in place of that, 100 μl of a medium containing the compound was added.
After 30 minutes from the addition, fixation was conducted using 4% paraformaldehyde (PFA) for 10 minutes. The fixed cells were washed with a Tris-buffered saline (TBS) and a TBS containing 0.3% Triton X was added thereto followed by incubating at 37° C. for 30 minutes. This was washed with a TBS and blocked with a TBS containing 3% skim milk for 30 minutes (at room temperature).
This was washed with a TBS for one time and a primary antibody (anti-phospho-p42/44 MAPK antibody; cell signalings; #9102 being diluted with TBS to an extent of 1,000-fold) was added thereto followed by subjecting to the reaction at 4° C. for one night. The primary antibody was removed and washed with a TBS for three times. After that, the secondary antibody (Alexa 488 goat anti-rabbit antibody; Invitrogen: being diluted to an extent of 1,000-fold using a TBS containing 1% Block Ace) was added thereto and the reaction was conducted at room temperature for 3 hours. The secondary antibody was removed and, after washing with a TBS, fixation was conducted with 4% PFA for 1 hour.
This was washed with a TBS, Hoechst (diluted with a TBS to an extent of 2000-fold) was added thereto and nuclear staining was conducted. This was washed and mounted.
Taking the photographic pictures and counting the positive cells were conducted as follows. An all-in-one microscope (manufactured by Keyence) was used, exposing time for pMAPK (green) was made 1/2.8 s, the place was appropriately decided in a Hoechst-stained image and the pictures were taken. Four pictures per one glass sheet were taken.
Photoshop (Adobe) was used and the cells having above a certain luminance were judged to be positive. All cells were labeled using Hoechst 33342 manufactured by Invitrogen and the rate of pMAPK-positive cells in Hoechst-positive cells was calculated. (cf. Table 7)

[1] = tested on: paclitaxel-induced peripheral nerve disorder rats; experiment: von Frey test in paclitaxel-induced peripheral nerve disorder rats; type: in vivo; conditions: Rattus norvegicus, ip; single intraperitoneal dose of 300 μ/kg; higher of the thresholds after 1 hour and 5 hours; normal threshold 15; read-out: Recovery rate of 50% reaction threshold value (%)
Procedure: The effect of the compound of the present invention was tested for a peripheral nerve disorder which is a side effect induced by the administration of paclitaxel (an anti-cancer agent) such as hyperesthesia including allodynia (severe pain induced by such tactile stimuli which usually cause no pain). The compound of the present invention was intraperitoneally administered to rats as a test drug to conduct a von Frey test.
Male SD rats of six weeks age (one group comprising six rats) were used as experimental animals and paclitaxel (2 mg/kg) was intraperitoneally administered every other day for four times in total to prepare paclitaxel-induced peripheral nerve disorder rats. During 18 and 25 days or during 20 to 27 days after initiation of paclitaxel administration, the test drug was intraperitoneally administered in a single dose of […] and the following von Frey test was conducted.
The rats of the above (1) were placed in a transparent acrylic cage with a wire-meshed floor and habituated for about three minutes and the 50% reaction threshold values to the mechanical stimulus of right hind limb were measured before administration of the test drug and after 1, 5 and 24 hours from initiation of the administration.
The measurement was conducted using von Frey filaments (manufactured by North Coast Medical Inc.) in accordance with the methods of Chaplan, et al. (Journal of Neuroscience Methods, vol. 53, no. 1, pages 55 to 63, 1994) and Dixon, et al. (Annual Review of Pharmacology and Toxicology, vol. 20, pages 441 to 462, 1980). […] The case where the rat escaped at the instance of removing the filament was also called positive. When the positive reaction was noted, stimulus was conducted similarly using a filament of one rank weaker while, when no reaction was noted, stimulus was conducted similarly using a filament of one rank stronger and the point when the reaction changed from negative to positive or from positive to negative was called the first two reactions. After that, stimulus was conducted for continuous four times by the same up-down method. A 50% reaction threshold value to the mechanical stimulus was measured using the reaction to the six stimuli in total and then (mean value)±(standard error) for each group was calculated. Incidentally, when stimulus reached by that of 15.0 g without positive reaction or, when positive reaction continued to 0.4 g, then 15.0 g or 0.25 g was adopted as each threshold value, respectively. With regard to the higher 50% reaction threshold value between the 50% threshold values after 1 hour and 5 hours from administration of a test drug, a recovery rate (%) of the 50% reaction threshold value was calculated by the following expression in which 15 was adopted as the normal threshold value. Recovery rate (%) of 50% reaction threshold value=[(50% reaction threshold value after 1 hour or 5 hours from administration of test drug)−(50% reaction threshold value before administration of test drug)]/[(Normal threshold value)−(50% reaction threshold value before administration of test drug)]

| Compound | Ratio of pMAPK to MAPK (MAP kinase; 30 μg/mL) | Ratio of pMAPK to MAPK (MAP kinase; 60 μg/mL) | Ratio of pMAPK to MAPK (MAP kinase; 125 μg/mL) | Rate of pMAPK-positive cells (%) (PC12 cells; 62.5 μg/mL) | Rate of pMAPK-positive cells (%) (PC12 cells; 125 μg/mL) | Rate of pMAPK-positive cells (%) (PC12 cells; 250 μg/mL) | Rate of pMAPK-positive cells (%) (PC12 cells; 500 μg/mL) | pMAPK/MAPK/Control (MAP kinase; 250 μg/ml, Test Example 2, control = 1.00) | inhibition in vivo at 0.3 mg/kg [1] | Ratio of pMAPK to MAPK (MAP kinase; 250 μg/mL) |
| --- | --- | --- | --- | --- | --- | --- | --- | --- | --- | --- |
| CCCCCCC/C=C/C(=O)OCCCCN(C)C [Compound 4, (E)-4-(dimethylamino)butyl dec-2-enoate] | 2.2 | 3.2 | 20.6 | 12% | 27% | 64% | 81% |  |  |  |
| CCCCCCC/C=C/C(=O)OCCOCCN(CC)CC [Compound 13, (E)-2-(2-(diethylamino)ethoxy)ethyl dec-2-enoate] | 2.6 | 3.1 | 1.3 | 35% | 35% | 52% |  | 1.46 |  |  |
| CCCCCCC/C=C/C(=O)N(C)CCN(C)C [Compound 42, (E)-N-(2-(dimethylamino)ethyl)-N-methyl dec-2-enamide] |  |  |  | 6% | 7% | 27% |  |  | 48.7% |  |
| CCCCCCC/C=C/C(=O)N(CC)CCN(C)C [Compound 43, (E)-N-(2-(dimethylamino)ethyl)-N-ethyl dec-2-enamide] |  |  |  | 20% | 26% | 49% |  |  | 40.3% |  |
| CCCCCCC/C=C/C(=O)N(CC)CCN(CC)CC [Compound 44, (E)-N-(2-(diethylamino)ethyl)-N-ethyl dec-2-enamide] |  |  |  | 17% | 7% | 18% |  |  | 62.6% |  |
| CCCCCCC/C=C/C(=O)N(CCN(C)C)CCN(C)C [Compound 45, (E)-N,N-bis(2-(dimethylamino)ethyl) dec-2-enamide] |  |  |  | 34% | 67% | 50% |  |  | 37% |  |
| CCCCCCC/C=C/C(=O)N(CCN(CC)CC)CCN(CC)CC [Compound 46, (E)-N,N-bis(2-(diethylamino)ethyl) dec-2-enamide] |  |  |  | 22% | 13% | 32% |  |  | 19.9% |  |
| CCCCCCC/C=C/C(=O)N(CCCN(C)C)CCCN(C)C [Compound 47, (E)-N,N-bis(3-(dimethylamino)propyl) dec-2-enamide] |  |  |  | 17% | 33% | 23% |  |  | 37.4% |  |
| CCCCCCC/C=C/C(=O)SCCN(CC)CC [Compound 56, (E)-S-2-(diethylamino)ethyl dec-2-enethioate] |  | 5.0 | 7.4 |  |  |  |  |  | 60.5% | 5.7 |
